Species on record: Mus musculus
Test: cells; call rule not given here
Assay type: functional, organism-based, ddY
[1] = Mus musculus, ddY, read-out: IC50

| SMILES | IC50 [1] [nM] | IC50 |
| --- | --- | --- |
| O=C(O)/C=C/c1ccc(O)cc1O | 210 | – |
| COc1cc(CC(O)C(=O)O)ccc1O (stereo unspecified) | – | Not Active |
| O=C(O)/C=C\c1ccc(O)c(O)c1O | – | Not Active |
| O=C(O)/C=C\c1cc(O)c(O)cc1O | – | Not Active |
| O=C(O)/C=C\c1cc(O)c(O)c(O)c1 | – | Not Active |
| O=C(O)/C=C/c1cc(O)c(O)c(O)c1 | 180 | – |
| O=C(CCc1ccc(O)c(O)c1)O[C@H](Cc1ccc(O)c(O)c1)C(=O)O | – | Not Active |
| O=C(O)/C=C/c1cccc(O)c1 | 180 | – |
| O=C(C=Cc1ccc(O)c(O)c1)O[C@H](Cc1ccc(O)c(O)c1)C(=O)O (mixture of isomers) [(E/Z)-ROSMARINIC ACID] | 600 | – |
| COC(=O)[C@@H](Cc1ccc(O)c(O)c1)OC(=O)C=Cc1ccc(O)c(O)c1 (mixture of isomers) [ROSMARINIC ACID METHYL ESTER] | – | Not Active |
| O=C(O)/C=C/c1ccc(O)c(O)c1 [CAFFEIC ACID] | 190 | – |
| O=C(/C=C/c1ccc(O)c(O)c1)O[C@@H]1C[C@](O)(C(=O)O)C[C@@H](O)[C@H]1O [CHLOROGENIC ACID] | 200 | – |
| O=C/C=C/c1ccccc1 [CINNAMALDEHYDE] | – | Not Active |
| O=C(O)/C=C/c1ccccc1 [CINNAMIC ACID] | 180 | – |
| OC/C=C/c1ccccc1 [CINNAMIC ALCOHOL] | – | Not Active |
| O=C(O)/C=C/c1ccc(O)cc1 [COUMARIC ACID] | 190 | – |
| C/C=C/C(=O)O [CROTONIC ACID] | 220 | – |
| O=C(O)CCc1ccc(O)c(O)c1 [DIHYDROCAFFEIC ACID] | – | Not Active |
| COC(=O)/C=C/c1ccccc1 [E-METHYL CINNAMATE] | – | Not Active |
| COc1cc(/C=C/C(=O)O)ccc1O [FERULATE] | 200 | – |
| O=C(O)/C=C/C=C/c1ccccc1 [JUAREZIC ACID] | 220 | – |
| COC(=O)/C=C/c1ccc(O)c(O)c1 [METHYLCAFFEATE] | – | Not Active |
| COc1ccc(/C=C/C(=O)O)cc1OC [O,O'-DIMETHYLCAFFEIC ACID] | 240 | – |
| O=C(O)/C=C/c1ccccc1O [O-COUMARIC ACID] | 190 | – |
| O=C(/C=C/c1ccc(O)c(O)c1)O[C@H](Cc1ccc(O)c(O)c1)C(=O)O [ROSMARINIC ACID] | 150 | – |
| C/C=C/C=C/C(=O)O [SORBIC ACID] | 210 | – |
